Measurements: US11040035B2, “3-oxo-2,6-diphenyl-2,3-dihydropyridazine-4-carboxamides” (BAYER PHARMA AKTIENGESELLSCHAFT, priority 2016, dated 2021)

Assays:
AHR [1] = target: T1, AHR (Homo sapiens, UniProt P35869); experiment: In vitro assay 2: agonism in human cell line (transactivation assay)
T1 sequence (P35869 11-848): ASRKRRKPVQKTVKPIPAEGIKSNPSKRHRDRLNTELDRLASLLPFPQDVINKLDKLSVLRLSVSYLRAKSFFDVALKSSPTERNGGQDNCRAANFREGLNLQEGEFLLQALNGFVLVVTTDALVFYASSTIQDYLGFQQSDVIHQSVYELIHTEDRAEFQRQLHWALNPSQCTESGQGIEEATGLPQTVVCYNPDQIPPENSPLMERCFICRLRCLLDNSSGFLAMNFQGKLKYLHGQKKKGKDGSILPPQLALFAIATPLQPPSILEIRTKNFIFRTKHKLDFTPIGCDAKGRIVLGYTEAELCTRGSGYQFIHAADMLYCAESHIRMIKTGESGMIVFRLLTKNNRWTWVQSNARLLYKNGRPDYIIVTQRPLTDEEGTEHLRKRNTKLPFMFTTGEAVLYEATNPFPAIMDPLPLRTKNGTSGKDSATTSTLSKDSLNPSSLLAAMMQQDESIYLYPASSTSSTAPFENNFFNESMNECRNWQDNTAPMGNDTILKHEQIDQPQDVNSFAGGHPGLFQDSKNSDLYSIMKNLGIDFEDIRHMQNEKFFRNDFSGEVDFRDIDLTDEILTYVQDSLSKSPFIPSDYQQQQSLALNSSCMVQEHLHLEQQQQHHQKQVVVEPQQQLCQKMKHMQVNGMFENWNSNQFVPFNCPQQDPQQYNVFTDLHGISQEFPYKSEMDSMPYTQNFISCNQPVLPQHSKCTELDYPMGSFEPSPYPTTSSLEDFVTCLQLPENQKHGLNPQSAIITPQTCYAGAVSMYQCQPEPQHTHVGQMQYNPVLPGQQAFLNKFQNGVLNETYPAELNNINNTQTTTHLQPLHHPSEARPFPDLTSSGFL

AHR [2] = target: T1, AHR; experiment: In vitro assay 1: antagonism in human cell line (transactivation assay, kynurenic acid prestimulated); details: Assay 1: AHR-luc Hum Antagonism IC50 [M], 150 μM kynurenic acid, 20 hours, firefly luciferase
[3] = read-out: Assay 2: AHR-luc Hum Agonism IC50, no kynurenic acid, 20 hours, firefly luciferase
[4] = Assay 2: AHR-luc Hum Agonism IC50 [M], no kynurenic acid, 20 hours, firefly luciferase

Row | SMILES | IC50 (AHR [1]; [3]) [M] | IC50 (AHR [2]) [M] | IC50 (AHR [1]; [4]) [M]
1 | COCC(O)CNC(=O)c1cc(-c2ccc(C)cc2)nn(-c2cccc(F)c2)c1=O (single isomer, unassigned; enantiomer 2) [Example 18, 2-(3-Fluorophenyl)-N-(2-hydroxy-3-methoxypropyl)-6-(4-methylphenyl)-3-oxo-2,3-dihydropyridazine-4-carboxamide, Enantiomer 2] | > 2e-05 | 3.39e-07 | 
2 | O=C(NCC(O)C(F)(F)F)c1cc(-c2ccc(Cl)c(Cl)c2)nn(-c2cccc(F)c2)c1=O (stereo not shown) [Example 302, 6-(3,4-Dichlorophenyl)-2-(3-fluorophenyl)-3-oxo-N-(3,3,3-trifluoro-2-hydroxypropyl)-2,3-dihydropyridazine-4-carboxamide] |  | 2.29e-07 | > 2e-05
3 | Cc1ccc(-c2cc(C(=O)NCC(C)O)c(=O)n(-c3cccc(F)c3)n2)cc1 (single isomer, unassigned; enantiomer 2) [Example 15, 2-(3-Fluorophenyl)-N-(2-hydroxypropyl)-6-(4-methylphenyl)-3-oxo-2,3-dihydropyridazine-4-carboxamide, Enantiomer 2] | > 2e-05 | 2.62e-07 | 
4 | O=C(NC(CO)C1CCOC1)c1cc(-c2ccc(Cl)c(F)c2)nn(-c2cccc(F)c2)c1=O (single isomer, unassigned) [Example 295, 6-(4-Chloro-3-fluorophenyl)-2-(3-fluorophenyl)-N-[2-hydroxy-1-(tetrahydrofuran-3-yl)ethyl]-3-oxo-2,3-dihydropyridazine-4-carboxamide] | > 2e-05 | 8.3e-07 | 
5 | O=C(N[C@@H]1CCCC[C@@H]1O)c1cc(-c2ccc(Cl)c(F)c2)nn(-c2cccc(F)c2)c1=O (relative stereo) [Example 291, 6-(4-Chloro-3-fluorophenyl)-2-(3-fluorophenyl)-N-(cis-2-hydroxycyclohexyl)-3-oxo-2,3-dihydropyridazine-4-carboxamide] |  | 8.51e-08 | > 2e-05
6 | O=C(NC(CO)C1CCCO1)c1cc(-c2ccc(C(F)(F)F)cc2)nn(-c2cccc(F)c2)c1=O (single isomer, unassigned) [Example 339, 1,4-anhydro-2,3,5-trideoxy-5-[({2-(3-fluorophenyl)-3-oxo-6-[4-(trifluoromethyl)phenyl]-2,3-dihydropyridazin-4-yl}carbonyl)amino]hexitol] |  | 4.59e-08 | > 2e-05
7 | CC(C)(CNC(=O)c1cc(-c2ccc(Cl)cc2)nn(-c2cccc(F)c2)c1=O)C(=O)O [Example 399, 3-({[6-(4-Chlorophenyl)-2-(3-fluorophenyl)-3-oxo-2,3-dihydropyridazin-4-yl]carbonyl}amino)-2,2-dimethylpropanoic acid] |  | 7.2e-07 | > 2e-05
8 | O=C(NC(CO)C1CCOC1)c1cc(-c2ccc(Cl)cc2)nn(-c2cccc(F)c2)c1=O (stereo not shown) [Example 38, 6-(4-Chlorophenyl)-2-(3-fluorophenyl)-N-[2-hydroxy-1-(tetrahydrofuran-3-yl)ethyl]-3-oxo-2,3-dihydropyridazine-4-carboxamide] |  | 3.87e-08 | > 2e-05
9 | C[C@@H](CO)NC(=O)c1cc(-c2ccc(Cl)c(F)c2)nn(-c2cccc(F)c2)c1=O [Example 286, 6-(4-Chloro-3-fluorophenyl)-2-(3-fluorophenyl)-N-[(2S)-1-hydroxypropan-2-yl]-3-oxo-2,3-dihydropyridazine-4-carboxamide] |  | 2.77e-07 | > 2e-05
10 | O=C(N[C@H]1COC[C@@H]1O)c1cc(-c2ccc(N3CCOCC3)cc2)nn(-c2cccc(F)c2)c1=O (relative stereo) [Example 378, rel-2-(3-fluorophenyl)-N-[(3R,4S)-4-hydroxytetrahydrofuran-3-yl]-6-[4-(morpholin-4-yl)phenyl]-3-oxo-2,3-dihydropyridazine-4-carboxamide] |  | 2.48e-07 | > 2e-05

More lines, now with the values ahead:

Row | IC50 (AHR [1]; [3]) [M] | IC50 (AHR [2]) [M] | IC50 (AHR [1]; [4]) [M] | SMILES
11 |  | 2.12e-07 | > 2e-05 | C[C@H](O)CCNC(=O)c1cc(-c2ccc(Cl)cc2)nn(-c2cccc(F)c2)c1=O [Example 205, (+)-6-(4-Chlorophenyl)-2-(3-fluorophenyl)-N-[(3S)-3-hydroxybutyl]-3-oxo-2,3-dihydropyridazine-4-carboxamide]
12 |  | 1.44e-07 | > 2e-05 | CC(O)C(C)NC(=O)c1cc(-c2ccc(Cl)c(F)c2)nn(-c2cccc(F)c2)c1=O (stereo not shown) [Example 289, 6-(4-Chloro-3-fluorophenyl)-2-(3-fluorophenyl)-N-(3-hydroxybutan-2-yl)-3-oxo-2,3-dihydropyridazine-4-carboxamide]
13 |  | 7.28e-08 | > 2e-05 | O=C(NCC(O)C(F)(F)F)c1cc(-c2ccc(Cl)cc2)nn(-c2ccccc2)c1=O (single isomer, unassigned) [Example 77, 6-(4-chlorophenyl)-3-oxo-2-phenyl-N-(3,3,3-trifluoro-2-hydroxypropyl)-2,3-dihydropyridazine-4-carboxamide]
14 |  | > 2e-05 | 1.16e-07 | CC(C)C(O)CNC(=O)c1cc(-c2ccc(C(F)(F)F)cc2)nn(-c2cccc(F)c2)c1=O (racemic) [Example 241, 2-(3-Fluorophenyl)-N-[(2RS)-2-hydroxy-3-methylbutyl]-3-oxo-6-[4-(trifluoromethyl)phenyl]-2,3-dihydropyridazine-4-carboxamide]
15 |  | 7.88e-08 | > 2e-05 | CC(C)(O)CNC(=O)c1cc(-c2ccc(Cl)cc2)nn(-c2cccc(F)c2)c1=O [Example 188, 6-(4-Chlorophenyl)-2-(3-fluorophenyl)-N-(2-hydroxy-2-methylpropyl)-3-oxo-2,3-dihydropyridazine-4-carboxamide]
16 |  | 2.26e-08 | > 2e-05 | O=C(NC(CCO)C(F)(F)F)c1cc(-c2ccc(Cl)cc2)nn(-c2cccc(F)c2)c1=O (racemic) [Example 340, 6-(4-chlorophenyl)-2-(3-fluorophenyl)-3-oxo-N-[(2RS)-1,1,1-trifluoro-4-hydroxybutan-2-yl]-2,3-dihydropyridazine-4-carboxamide]
17 | > 2e-05 | 4.41e-07 |  | CC(C)C(O)CNC(=O)c1cc(-c2ccc(Cl)cc2)nn(-c2cccc(Cl)c2)c1=O (single isomer, unassigned) [Example 69, 2-(3-Chlorophenyl)-6-(4-chlorophenyl)-N-(2-hydroxy-3-methylbutyl)-3-oxo-2,3-dihydropyridazine-4-carboxamide]
18 |  | 1.72e-07 | > 2e-05 | CCC(CC)C(O)CNC(=O)c1cc(-c2ccc(Cl)cc2)nn(-c2cccc(F)c2)c1=O (racemic) [Example 233, 6-(4-Chlorophenyl)-N-[(2RS)-3-ethyl-2-hydroxypentyl]-2-(3-fluorophenyl)-3-oxo-2,3-dihydropyridazine-4-carboxamide]
19 |  | 2.79e-07 | > 2e-05 | O=C(NC(CO)CCO)c1cc(-c2ccc(Cl)cc2)nn(-c2cccc(F)c2)c1=O (racemic) [Example 224, 6-(4-Chlorophenyl)-N-[(2RS)-1,4-dihydroxybutan-2-yl]-2-(3-fluorophenyl)-3-oxo-2,3-dihydropyridazine-4-carboxamide]
20 |  | 1.81e-07 | > 2e-05 | COCC(O)CNC(=O)c1cc(-c2ccc(Cl)cc2)nn(-c2cccc(F)c2)c1=O (single isomer, unassigned) [Example 32, 6-(4-Chlorophenyl)-2-(3-fluorophenyl)-N-(2-hydroxy-3-methoxypropyl)-3-oxo-2,3-dihydropyridazine-4-carboxamide]
